Data: patent US10591487B2, “Small molecule detection and localization method based on MALDI imaging mass spectrometry” (INDUSTRY-ACADEMIC COOPERATION FOUNDATION, YONSEI UNIVERSITY, priority 2015, dated 2020)

Legend:
[1] = tested on: VEGF; experiment: Expression level of VEGF, target gene of HIF-1α; conditions: earlier finding of the inventors
[2] = tested on: HIF-1α; experiment: Expression level of HIF-1α; conditions: earlier finding of the inventors
[3] = Voacangine distribution in tumors, livers and kidneys by MALDI imaging mass spectrometry; type: in vivo, mice; conditions: four hours after treating voacangine, FIG. 5
Text: After surgically removing tumors, livers, and kidneys from mouse models after four hours after treating voacangine in Embodiment 3, a specimen was manufactured to perform MALDI mass spectrometry and immunofluorescence with H&E straining and the result was shown in FIG. 5.

[4] = tested on: U87MG; experiment: Variation of cancer size in U87MG cancer-diseased animal model; conditions: U87MG xenograft mice; voacangine 10 mg/kg i.p. every day for 12 days; compared with vehicle and sunitinib 40 mg/kg p.o.; FIG. 4
Method: A cell strain U87MG, which is a kind of human glioglastoma multiforme purchased from American Type Culture Collection (ATCC), was cultivated in a medium to which Phosphate-Buffered Saline (PBS): Matrigel (1:1) is added.
The cultivated cell strain U87MG of 5×10^6 was merged with PBS:Matrigel (1:1) of 100 μl and the mixture was injected into athymic nude mice for two weeks to induce growth of a cancer cell.

[5] = tested on: capsaicin-induced contraction; conditions: isolated mouse rectum; J. Nat. Med. 65 (2011) 157-165; cited from earlier work
[6] = tested on: CD31; experiment: Expression level of CD31 by immunohistochemical analysis of cancer cell; type: in vivo, mice; conditions: cancer tissue after dosing voacangine or sunitinib; FIGS. 14 and 15
Method: Immunohistochemical analysis was performed to find an effect of voacangine against pathological angiogenesis of a cancer cell.
CD31 or Platelet Endothelial Cell Adhesion Molecule-1 (PECAM-1) are known as being expressed on the surface of a hematoblast such as platelet and naive T cell, natural killer cell, granulocyte, monocyte and cell-to-cell junction of endothelial as transmembrane glycoprotein of 130 kDa type belonging to immunoglobulin super-family.

[7] = tested on: Human Umbilical Vascular Endothelial Cell (HUVEC); experiment: In vitro and in vivo angiogenesis inhibition (cell-based HUVEC screening); conditions: nontoxic dose, earlier finding of the inventors
Text: The inventors screened 300 crude extracts which are taken from a natural plant that is effective in proliferating Human Umbilical Vascular Endothelial Cell (HUVEC) by using a cell-based screening technique.

CC[C@H]1C[C@@H]2C[N@]3CCc4c([nH]c5ccc(OC)cc45)[C@](C(=O)OC)(C2)C13 [voacangine]
expression level of VEGF [1]: dose-dependently inhibited
expression level of HIF-1α [2]: dose-dependently inhibited
localization of voacangine in livers, kidneys and cancer cells [3]: more concentrated in the cancer cells than the livers and kidneys
cancer size after dosage [4]: greatly reduced
capsaicin-induced contraction [5]: dose-dependently inhibiting
CD31 expression [6]: greatly reduced in expression
angiogenesis inhibition [7]: inhibiting in vitro and in vivo angiogenesis by a nontoxic dose

CCN(CC)CCNC(=O)c1c(C)[nH]c(/C=C2\C(=O)Nc3ccc(F)cc32)c1C [sunitinib, Sunitinib malate, reference compound]
CD31 expression [6]: greatly reduced in expression
